Laboratory results as given in PMC4963197, “Phosphorylation acts positively and negatively to regulate MRTF-A subcellular localisation and activity” (eLife, 2016).
Read-outs that look alike come from different tables or passages of the source. Ends that are not written are not given here.

Experiments:
MRTF-A [1] = assay: MRTF-A subcellular localisation by immunofluorescence; type: cell-based, mouse; conditions: for effect of inhibitor on TPA block of serum-induced MRTF-A nuclear accumulation / inhibition of TPA-induced MRTF-A nuclear accumulation: U0126 10 μM, Gö6976 2 μM, Gö6983 6 μM; for effect of inhibitor on TPA block of serum-induced MRTF-A nuclear accumulation: TPA then 15% FCS; for inhibition of TPA-induced MRTF-A nuclear accumulation: pretreated 20 min
Description: (§1) NIH3T3 cells were cultured in DMEM, 10% FCS.
(§2) For immunofluorescence ([Vartiainen et al., 2007]), NIH3T3 cells were transfected in six-well plates (150000 /well), with 50 ng pEF-Flag-MRTF-PK derivatives, 100 ng pEF-MRTF-A derivatives, 50 ng MEK-R4F, 100 ng RafER, using Lipofectamine 2000 (Invitrogen).
(§3) Data was processed using GraphPad Prism version 5.03.

MRTF-A [2] = assay: MRTF-A phosphorylation (SDS-PAGE mobility, immunoblot); type: cell-based, mouse; conditions: for inhibition of MRTF-A phosphorylation by PKC inhibitor: inhibitor pretreatment 20 min, 100 ng/ml TPA 30 min
Description: as §1, §3

MRTF-A [3] = assay: Site-specific MRTF-A phosphorylation (phosphospecific antibody immunoblot); type: cell-based, mouse; conditions: for phosphorylation at analysed phospho-sites: 2 μM CD or 100 ng/ml TPA, sites analysed with phosphospecific antibodies; for S33 phosphorylation / S98 phosphorylation: 100 ng/ml TPA, U0126 10 μM
Description: as §1, §3

[4] = tested on: F-actin assembly in NIH3T3 cells; assay: F- and G-actin quantitation (F:G ratio); type: cell-based, mouse; conditions: n = 3; for effect of inhibitor on TPA inhibition of F-actin assembly: inhibitor 20 min, TPA 20 min, 15% FCS 20 min
Description: Cells were processed as described ([Vartiainen et al., 2007]) with modifications. G- and F-actin were detected using 0.3 μM DN'ase I-Alexa Fluor 488 conjugate and 5 U/ml Alexa Fluor 647-phalloidin (Molecular Probes). After three washes in PBS, cells were analysed using the Cellomics ArrayScan. For each experiment, six technical replicates were performed. Statistical significance of alterations in F:G ratio was estimated by one-way ANOVA (Dunnett's multiple comparison test).

PKC isoforms = conditions: 2 μM Gö6976; ref Martiny-Baron et al., 1993; cited from earlier work
Description: as §1

ERK = ERK activation immunoblot; type: cell-based; conditions: inhibitor pretreatment 20 min, 100 ng/ml TPA 30 min
Description: as §1, §3

MRTF-A [5] = conditions: LatB; ref Vartiainen et al., 2007; cited from earlier work
[6] = tested on: RevΔ MRTF-A GFP derivatives (Crm1-dependent NES); assay: RevΔGFP nuclear export assay; type: cell-based; conditions: 50 nM LMB
MRTF-SRF target genes = conditions: 100 ng/ml TPA, 0.25-3 hr; n = 2
RhoA = conditions: 100 ng/ml TPA, then 15% FCS
Description: RhoGTP pull-downs used Rho activation assay (Millipore) with modifications. Cells were grown in 15 cm dishes, washed twice in ice-cold TBS, scraped in 400 μl 2x lysis buffer with 16% glycerol, made to 800 μl with water, and clarified. 20 μl was retained as input, and the remainder incubated with 20 μl GST-Rhotekin for 45 min at 4°C. After three 1 ml washes with Lysis buffer, proteins were eluted with SDS loading buffer and Rho recovery assessed by immunoblotting.

MLC2 = MLC2 S19; 100 ng/ml TPA, then 15% FCS
MRTF-A(2–204)-PK = MRTF-A(2–204)-PK subcellular localisation by immunofluorescence; type: cell-based, mouse; conditions: TPA
Description: as §1, §2, §3

MEK = conditions: 10 μM U0126; ref Bain et al., 2007; cited from earlier work
Description: as §1

G-actin = molecular target: T1, G-actin (Oryctolagus cuniculus, UniProt P68135); assay: Size exclusion chromatography of G-actin / Spacer1-RPEL2 peptide complexes; type: binding; conditions: SEC, Spacer1-RPEL2 peptides; for apparent molecular mass of G-actin complex: Superdex 200, 20 mM Tris (pH 8), 100 mM NaCl; for apparent stoichiometry of G-actin binding: Superdex 200, pH 8
T1 construct: Actin was prepared as described ([Mouilleron et al., 2008]); from tissue; host or cells: rabbit skeletal muscle (own knowledge of the cited method)
Description: Peptides were synthesised by the London Research Institute (LRI) peptide synthesis platform. MRTF-A(94–142), FAM-MRTF-A(62–104) and FAM-MRTF-A(67–98) derivatives are as in Figure 4—figure supplement 2A. Phosphorylated 10–12 mer peptides for immunizations were centred on the phosphoacceptor site (see Table 1). Actin was prepared as described ([Mouilleron et al., 2008]).
Preparation of LatB-actin and fluorescence polarisation anisotropy assay were described ([Guettler et al., 2008]). Size exclusion chromatography was on Superdex 200 column equilibrated in 20 mM Tris (pH 8), 100 mM NaCl, 3 mM MgCl2, 0.2 mM EGTA, 0.3 mM TCEP [(tris(2-carboxyethyl)phosphine)], 5% (v/v) glycerol, calibrated with globular proteins of known molecular weight.

[7] = NIH3T3 cells, 100 ng/ml TPA, 2 μM CD or 50 nM LMB
[8] = 100 ng/ml TPA 20 min, then 15% FCS 20 min

Question: Which “block of serum-induced nuclear accumulation by pre-treatment” value (MRTF-A [1]; Raf-ER cells, 1 μM 4OHT 20 min, then 15% FCS 20 min) does the source give for `CC/C(=C(\c1ccc(O)cc1)c1ccc(OCCN(C)C)cc1)c1ccccc1` [4-hydroxytamoxifen] here?
Answer: Its value is “Only pre-treatment with TPA significantly blocked serum-induced nuclear accumulation”.

Question: Which results are given for `C=C1[C@@H](C)[C@H]2[C@H](Cc3ccccc3)NC(=O)[C@]23[C@H](OC(C)=O)/C=C/[C@@](C)(O)C(=O)[C@@H](C)C/C=C/[C@H]3[C@@H]1O` [CD, cytochalasin D]?
Answer: phosphorylation of MRTF-A/MC fusion protein (MRTF-A [2]; 2 μM CD): exhibited CD-induced phosphorylation similar to that seen in MRTF-A; ERK dependence of CD-induced MRTF-A phosphorylation (MRTF-A [2]; 2 μM CD with and without 10 μM U0126): this occurred independently of ERK; phosphorylation of MRTF-A B2A (NLS mutant) (MRTF-A [2]; 15% FCS or 2 μM CD, 10 μM U0126): could be induced by serum, but not CD; MRTF-A phosphorylation (MRTF-A [2]; [7]): also induced MRTF-A phosphorylation; phosphorylation at analysed phospho-sites (MRTF-A [3]): induced a gradual accumulation at all analysed sites

Question: Which “effect of inhibitor on TPA inhibition of F-actin assembly” value [4] does the source give for `Cn1c2ccccc2c2c3c(c4c5ccccc5n(CCC#N)c4c21)CNC3=O` [Gö6976] here?
Answer: The value was “not by U0126 or Gö6976”.

Question: And the PKC isoform block (PKC isoforms)?
Answer: Its PKC isoform block is “insufficient to block non-novel PKC isoforms”.

Question: What about the “inhibition of MRTF-A phosphorylation by PKC inhibitor” value (MRTF-A [2]) of the same compound?
Answer: The value was “only the latter completely inhibited ERK activation and MRTF-A phosphorylation”.

Question: What about the “inhibition of TPA-induced ERK activation” value (ERK) of the same compound?
Answer: The value was “only the latter completely inhibited ERK activation”.

Question: And the “effect of inhibitor on TPA block of serum-induced MRTF-A nuclear accumulation” value (MRTF-A [1])?
Answer: Its value is “insensitive to U0126 and Gö6976”.

Question: And the “inhibition of TPA-induced MRTF-A nuclear accumulation” value (MRTF-A [1]; 100 ng/ml TPA)?
Answer: The value was “sensitive to both the conventional-PKC inhibitor Gö6976 and the pan-PKC inhibitor Gö6983”.

Question: What does the source list for `COc1ccc2c(c1)c(C1=C(c3c[nH]c4ccccc34)C(=O)NC1=O)cn2CCCN(C)C` [Gö6983]?
Answer: effect of inhibitor on TPA inhibition of F-actin assembly [4]: relieved by Gö6983; inhibition of MRTF-A phosphorylation by PKC inhibitor (MRTF-A [2]): completely inhibited ERK activation and MRTF-A phosphorylation; inhibition of TPA-induced ERK activation (ERK): completely inhibited ERK activation; effect of inhibitor on TPA block of serum-induced MRTF-A nuclear accumulation (MRTF-A [1]): relieved by Gö6983; inhibition of TPA-induced MRTF-A nuclear accumulation (MRTF-A [1]; 100 ng/ml TPA): sensitive to both the conventional-PKC inhibitor Gö6976 and the pan-PKC inhibitor Gö6983

Question: Which results are given for `C/C1=C/C(=O)O[C@@H]2C[C@@H](CC[C@H](C)/C=C\CC1)O[C@@](O)([C@@H]1CSC(=O)N1)C2` [LatB, Latrunculin B]?
Answer: cytoplasmic localisation of MRTF-A (MRTF-A [5]): restore cytoplasmic localisation of MRTF-A; return of serum-induced MRTF-A phosphorylation (MRTF-A [2]; NIH3T3, 15% FCS 30 min, then 1 μM LatB): rapid return of MRTF-A phosphorylation to prestimulation levels

Question: With `CCC(=C/[C@H](C)C/C=C/C(C)=C/[C@@H](C)C(=O)[C@@H](C)[C@H](O)[C@@H](C)C/C(C)=C/C(=O)O)/C=C/[C@@H]1OC(=O)C=C[C@@H]1C` [Leptomycin B] as the compound, how does the “nuclear localisation of RevΔMRTF-A derivatives” value [6] read?
Answer: The value was “Nuclear localisation could be restored by serum stimulation, or by treatment with Leptomycin B (LMB)”.

Question: And the “nuclear localisation of RevΔMRTF-A derivatives” value ([6]; listed as LMB)?
Answer: Its value is “both proteins accumulated in the nucleus upon LMB treatment”.

Question: What about the MRTF-A phosphorylation (MRTF-A [2]; [7]) of the same compound?
Answer: The MRTF-A phosphorylation was “did not induce phosphorylation unless the cells were simultaneously stimulated with CD or FCS”.

Question: Which “induction of transcription of MRTF-SRF target genes” value (MRTF-SRF target genes) does the source give for `CCCCCCCCCCCCCC(=O)O[C@@H]1[C@@H](C)[C@@]2(O)[C@@H](C=C(CO)C[C@]3(O)C(=O)C(C)=C[C@@H]23)[C@H]2C(C)(C)[C@]12OC(C)=O` [TPA] here?
Answer: The value was “induced transcription of MRTF-SRF target genes in an ERK-dependent manner”.

Question: And the “serum-induced F-actin assembly” value [4, 8]?
Answer: Its value is “inhibited serum-induced F-actin assembly”.

Question: What about the “serum-induced accumulation of Rho.GTP” value (RhoA) of the same compound?
Answer: Its value is “inhibited serum-induced accumulation of Rho.GTP”.

Question: And the “serum-induced phosphorylation of MLC2” value (MLC2)?
Answer: Its value is “inhibited serum-induced accumulation of Rho.GTP, and phosphorylation of MLC2, independently of ERK but in a PKC-dependent manner”.

Question: And the MRTF-A phosphorylation (MRTF-A [2])?
Answer: Its MRTF-A phosphorylation is “also induced MRTF-A phosphorylation”.

Question: What about the “nuclear accumulation of MRTF-A(2–204)-PK” value (MRTF-A(2–204)-PK) of the same compound?
Answer: The value was “promoted nuclear accumulation of MRTF-A(2–204)-PK”.

Question: What about the “inhibition of serum-induced MRTF-A nuclear accumulation by TPA pretreatment” value (MRTF-A [1]; [8]) of the same compound?
Answer: Its value is “effectively blocked MRTF-A nuclear accumulation upon subsequent serum stimulation”.

Question: What about the “proportion of cells with predominantly nuclear MRTF-A” value (MRTF-A [1]; 100 ng/ml TPA, 20 min) of the same compound?
Answer: The value was “substantially increased the proportion of cells with predominantly nuclear MRTF-A”.

Question: What about the S33 phosphorylation (MRTF-A [3]) of the same compound?
Answer: The S33 phosphorylation was “could be slightly increased upon serum or TPA stimulation”.

Question: What about the S98 phosphorylation (MRTF-A [3]) of the same compound?
Answer: The S98 phosphorylation was “by TPA in a U0126-sensitive fashion”.

Question: And the “phosphorylation at analysed phospho-sites” value (MRTF-A [3])?
Answer: The value was “induced a gradual accumulation at all analysed sites”.

Question: For `N#CC(=C(/N)Sc1ccccc1N)/C(C#N)=C(/N)Sc1ccccc1N` [U0126], which “effect of inhibitor on TPA inhibition of F-actin assembly” value [4] is on record?
Answer: The value was “not by U0126 or Gö6976”.

Question: What about the “MEK inhibition and selectivity” value (MEK) of the same compound?
Answer: Its value is “sufficient to inhibit MEK activation without substantial effects on other kinases”.

Question: And the “effect of inhibitor on TPA block of serum-induced MRTF-A nuclear accumulation” value (MRTF-A [1])?
Answer: The value was “insensitive to U0126 and Gö6976”.

Question: What about the S33 phosphorylation (MRTF-A [3]) of the same compound?
Answer: The S33 phosphorylation was “Induced S33 phosphorylation was U0126-sensitive”.

Question: And the S98 phosphorylation (MRTF-A [3])?
Answer: Its S98 phosphorylation is “U0126-sensitive”.

Question: Which “apparent molecular mass of G-actin complex” value (G-actin) does the source give for “S1-R2 WT: Spacer1-RPEL2 peptide (LKLKRARLADDLNEKIAQRPGPMELVEKNILPVESSLKEAIIVGQVNYP; UniProt Q8K4J6 94-142, looked up, fragment)” here?
Answer: Its value is 70.9 kDa.

Question: And the “apparent stoichiometry of G-actin binding” value (G-actin)?
Answer: Its value is 1.5 actins.

Question: For “S1-R2 pS98: Spacer1-RPEL2 peptide phosphorylated at S98 (LKLKRARLADDLNEKIAQRPGPMELVEKNILPVESSLKEAIIVGQVNYP; also: phosphorylated at S98, position not located in chain; UniProt Q8K4J6 94-142, looked up, fragment)”, which “apparent molecular mass of G-actin complex” value (G-actin) is on record?
Answer: Its value is 64.1 kDa.

Question: What about the “apparent stoichiometry of G-actin binding” value (G-actin) of the same compound?
Answer: The value was 1.4 actins.
